Reference: patent US12016948B2, “Micromotors and nanomotors for gastrointestinal diagnosis and treatment applications” (The Regents of the University of California, priority 2017, dated 2024)
In brackets after ≈: the same amount, converted by molar mass.

Test system: H. pylori Sydney strain 1 (HPSS1)
Assay: In vitro bactericidal activity against H. pylori
Format: cell-based
Conditions: Helicobacter pylori; kills 3 logs (99.9%) of bacteria; samples pretreated in 0.1 N HCl 1 h; 24 h incubation; read-out: minimal bactericidal concentration (MBC)
Protocol: To mimic the gastric environment, for example, samples were treated in 0.1 N HCl for 1 h prior to incubation with bacteria. This also ensured the dissolution of micromotors and consecutive drug release. […] Specifically, it was determined that the minimal bactericidal concentration (MBC) values of the samples, defined as the minimal concentration of an antimicrobial agent that kills 3 logs (99.9%) of the bacteria. […] Moreover, bare Mg-based micromotors with corresponding amount of motors were used as negative controls. […] Overall, FIG. 13D verifies that the activity of the loaded drug was not compromised compared to free drug. The example findings validate the potential use of these drug-loaded micromotors for therapeutic applications. In Vitro Anti-H. pylori Activity. H. pylori Sydney strain 1 (HPSS1) was cultured from frozen stock and routinely maintained on Columbia agar supplemented with 5% (vol/vol) laked horse blood at 37° C. under microaerobic conditions (e.g., 10% CO2, 85% N2, and 5% 02). For example, broth cultures of H. pylori were prepared by subculturing fresh colonies from agar plates into Brain heart infusion (BHI) supplemented with 5% fetal bovine serum (FBS) and incubated overnight at 37° C. under microaerobic conditions with moderate reciprocal shaking. […] The plates were cultured for 4 days before the colony-forming unit (CFU) of H. pylori was quantified. […]

CC[C@H]1OC(=O)[C@H](C)[C@@H](O[C@H]2C[C@@](C)(OC)[C@@H](O)[C@H](C)O2)[C@H](C)[C@@H](O[C@@H]2O[C@H](C)C[C@H](N(C)C)[C@H]2O)[C@](C)(OC)C[C@@H](C)C(=O)[C@H](C)[C@@H](O)[C@]1(C)O [free CLR, clarithromycin]
MBC: 0.25 µg/mL (≈ 0.334 µM)
